Laboratory results as given in PMC11965064, “Identification and verification of methylenetetrahydrofolate dehydrogenase 1-like protein as the binding target of natural product pseudolaric acid A” (Natural Products and Bioprospecting, 2025).

Biological target: T1, methylenetetrahydrofolate dehydrogenase 1-like (MTHFD1L) (Homo sapiens, UniProt Q6UB35)
T1 construct: MTHFD1L (68–978 AA), recombinant from E. coli, MBP tag cleaved with thrombin
T1 sequence (Q6UB35 68-978): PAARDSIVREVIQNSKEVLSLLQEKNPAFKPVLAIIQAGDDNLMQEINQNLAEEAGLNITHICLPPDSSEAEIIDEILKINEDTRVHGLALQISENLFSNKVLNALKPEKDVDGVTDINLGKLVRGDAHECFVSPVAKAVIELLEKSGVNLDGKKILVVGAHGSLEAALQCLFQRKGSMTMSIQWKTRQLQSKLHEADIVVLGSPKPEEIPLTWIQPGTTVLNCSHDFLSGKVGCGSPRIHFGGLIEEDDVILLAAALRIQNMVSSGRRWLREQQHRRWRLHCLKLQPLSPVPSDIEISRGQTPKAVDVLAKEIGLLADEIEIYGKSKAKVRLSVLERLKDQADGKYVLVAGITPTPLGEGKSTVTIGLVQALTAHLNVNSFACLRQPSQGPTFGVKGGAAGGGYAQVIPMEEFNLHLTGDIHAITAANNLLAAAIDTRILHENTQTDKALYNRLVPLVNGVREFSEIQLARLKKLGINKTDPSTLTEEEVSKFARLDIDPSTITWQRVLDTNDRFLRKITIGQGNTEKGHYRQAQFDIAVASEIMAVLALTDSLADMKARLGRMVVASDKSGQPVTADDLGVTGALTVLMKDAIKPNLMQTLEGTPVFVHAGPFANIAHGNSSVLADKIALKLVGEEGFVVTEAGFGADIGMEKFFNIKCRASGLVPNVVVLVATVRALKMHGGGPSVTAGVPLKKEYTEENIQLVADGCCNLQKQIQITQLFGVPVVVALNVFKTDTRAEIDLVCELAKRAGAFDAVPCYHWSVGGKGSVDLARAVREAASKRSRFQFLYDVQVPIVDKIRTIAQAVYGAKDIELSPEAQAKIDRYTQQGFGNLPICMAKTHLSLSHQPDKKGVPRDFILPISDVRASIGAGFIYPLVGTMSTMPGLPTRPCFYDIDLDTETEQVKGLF
Assay: SPR (Biacore T200, steady-state affinity); supported by NMR STD, DARTS and ABPP competition
Type: binding

CC(=O)O[C@]12CCC(C)=CC[C@]13CC[C@H]2[C@@](C)(/C=C/C=C(\C)C(=O)O)OC3=O [PAA, pseudolaric acid A]
Kd: ~4.05 µM
